Measured values taken from patent US20240208992A1, “MACROCYCLES AS CFTR MODULATORS” (Idorsia Pharmaceuticals Ltd, priority 2021, published 2024).

Biological target: human F508del-CFTR (Homo sapiens, UniProt P13569, DEL508-508)
Experiment: F508del-CFTR cell surface expression (corrector activity), DiscoveRx ß-galactosidase complementation chemiluminescence assay in recombinant U2OS cell line;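 further: U2OS cells co-expressing ProLink-tagged F508del-CFTR and a membrane-anchored enzyme acceptor, where more surface CFTR restores β-galactosidase activity measured by chemiluminescence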
Settings: for EC50: EC50, F508del-CFTR cell surface expression
[1] = U2OS cell line, 16h compound incubation, geomean values
[2] = U2OS, in relation to the Emax of the corrector lumacaftor (=100%), U2OS cell line, 16h compound incubation, arithmetic mean values
[3] = U2OS cells, 16h compound incubation, geomean values
[4] = U2OS, in relation to Emax of corrector lumacaftor (=100%), arithmetic mean values
[5] = U2OS cells, 16h compound incubation, geomean of several measurements
[6] = U2OS, in relation to the Emax of the corrector lumacaftor (=100%), U2OS cells, 16h compound incubation, arithmetic mean

Sequence of human F508del-CFTR (P13569 with tags, fused parts or gaps DEL508-508): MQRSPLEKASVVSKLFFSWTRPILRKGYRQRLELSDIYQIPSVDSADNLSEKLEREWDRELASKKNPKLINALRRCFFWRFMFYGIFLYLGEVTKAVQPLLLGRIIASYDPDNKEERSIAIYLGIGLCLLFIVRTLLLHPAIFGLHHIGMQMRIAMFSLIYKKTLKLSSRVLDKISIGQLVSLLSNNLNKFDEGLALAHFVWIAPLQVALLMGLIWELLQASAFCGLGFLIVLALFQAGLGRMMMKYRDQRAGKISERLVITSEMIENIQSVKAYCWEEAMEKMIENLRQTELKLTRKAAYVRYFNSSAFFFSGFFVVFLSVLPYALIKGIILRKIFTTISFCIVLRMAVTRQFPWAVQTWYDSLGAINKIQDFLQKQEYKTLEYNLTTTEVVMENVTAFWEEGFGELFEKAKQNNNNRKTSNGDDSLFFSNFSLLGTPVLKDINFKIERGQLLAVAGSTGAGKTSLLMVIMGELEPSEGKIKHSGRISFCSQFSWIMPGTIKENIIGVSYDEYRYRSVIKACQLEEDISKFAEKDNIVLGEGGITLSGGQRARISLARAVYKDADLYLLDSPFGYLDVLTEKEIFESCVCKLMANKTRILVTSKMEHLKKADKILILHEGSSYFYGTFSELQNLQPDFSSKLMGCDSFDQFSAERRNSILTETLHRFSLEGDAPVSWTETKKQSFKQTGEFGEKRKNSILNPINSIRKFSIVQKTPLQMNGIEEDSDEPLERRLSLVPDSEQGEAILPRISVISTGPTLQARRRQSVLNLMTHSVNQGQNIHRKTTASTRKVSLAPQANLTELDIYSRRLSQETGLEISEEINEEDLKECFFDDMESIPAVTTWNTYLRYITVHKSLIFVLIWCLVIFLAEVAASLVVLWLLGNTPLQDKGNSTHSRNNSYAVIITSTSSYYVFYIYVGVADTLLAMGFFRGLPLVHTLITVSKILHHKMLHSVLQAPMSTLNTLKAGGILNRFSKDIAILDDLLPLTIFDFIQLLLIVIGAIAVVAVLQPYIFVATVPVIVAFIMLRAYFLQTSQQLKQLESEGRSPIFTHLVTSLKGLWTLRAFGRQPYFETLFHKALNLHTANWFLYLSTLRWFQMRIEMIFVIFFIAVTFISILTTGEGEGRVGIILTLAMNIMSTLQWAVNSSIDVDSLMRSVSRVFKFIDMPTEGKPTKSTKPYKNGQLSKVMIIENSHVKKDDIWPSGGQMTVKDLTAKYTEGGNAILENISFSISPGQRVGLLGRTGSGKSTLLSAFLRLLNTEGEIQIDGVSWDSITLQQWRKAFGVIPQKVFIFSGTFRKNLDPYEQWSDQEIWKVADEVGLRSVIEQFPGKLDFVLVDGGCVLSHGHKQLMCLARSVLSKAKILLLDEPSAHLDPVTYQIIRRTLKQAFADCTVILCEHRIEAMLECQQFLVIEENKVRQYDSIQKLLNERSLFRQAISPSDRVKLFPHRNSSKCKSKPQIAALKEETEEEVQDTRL

With `CC(C)C[C@H]1C(=O)N(C)C2(CC2)C(=O)N[C@H](Cc2ccccc2)COc2cnc3ccccc3c2C(=O)N[C@H](C(=O)NCCc2ccccc2)CC(=O)N1C` [Example 108, (3′S,7′S,13′R)-13′-benzyl-7′-isobutyl-6′,9′-dimethyl-1′,5′,8′,11′-tetraoxo-N-phenethyl-2′,3′,4′,5′,6′,7′,8′,9′,11′,12′,13′,14′-dodecahydro-1′H-spiro[cyclopropane-1,10′-[1]oxa[4,7,10,14]tetraazacycloheptadecino[17,16-c]quinoline]-3′-carboxamide] the EC50 [1] was 581 nM and the Emax [2] was 222%.

Work on `COc1cccc(CCNC(=O)[C@@H]2CC(=O)N(C)[C@@H](CC(C)C)C(=O)N3CCOC[C@H]3C(=O)N[C@H](Cc3ccccc3)COc3cnc4ccccc4c3C(=O)N2)c1` [Example 413, (9S,13S,19aS,22R)-22-benzyl-13-isobutyl-N-(3-methoxyphenethyl)-12-methyl-7,11,14,20-tetraoxo-7,8,9,10,11,12,13,14,16,17,19,19a,20,21,22,23-hexadecahydro-[1,4]oxazino[3′,4′:6,7][1]oxa[4,7,10,14]tetraazacycloheptadecino[17,16-c]quinoline-9-carboxamide] yielded an EC50 [3] of 557 nM and an Emax [4] of 129%.

`COc1nc(C)cc2c1C(=O)N[C@H](C(=O)NC[C@@H](O)c1ccccc1)CC(=O)N(C)[C@@H](CC(C)C)C(=O)N(C)[C@H](Cc1nc(C(F)(F)F)no1)C(=O)N[C@H](Cc1ccccc1)CO2` [Example 848, (3R,6R,9S,13S)-3-benzyl-N-((S)-2-hydroxy-2-phenylethyl)-9-isobutyl-16-methoxy-7,10,18-trimethyl-5,8,11,15-tetraoxo-6-((3-(trifluoromethyl)-1,2,4-oxadiazol-5-yl)methyl)-2,3,4,5,6,7,8,9,10,11,12,13,14,15-tetradecahydropyrido[3,4-p][1]oxa[4,7,10,14]tetraazacycloheptadecine-13-carboxamide] gave an EC50 [5] of 225 nM and an Emax [6] of 364%.

Work on `COc1cccc2c1C(=O)N[C@H](C(=O)NCCc1ccc3c(c1)COC3)CC(=O)N(C)[C@@H](CC(C)C)C(=O)N(CCC1CCCCC1)CC(=O)N[C@H](Cc1ccccc1)CO2` (racemic) [Example 13, (3R,9S,13RS)-3-benzyl-7-(2-cyclohexylethyl)-N-(2-(1,3-dihydroisobenzofuran-5-yl)ethyl)-9-isobutyl-16-methoxy-10-methyl-5,8,11,15-tetraoxo-2,3,4,5,6,7,8,9,10,11,12,13,14,15-tetradecahydrobenzo[p][1]oxa[4,7,10,14]tetraazacycloheptadecine-13-carboxamide] yielded an EC50 [1] of 268 nM and an Emax [2] of 153%.

`CN1C(=O)C[C@@H](C(=O)NCCc2ccc3c(c2)OCO3)NC(=O)c2c(ccc3ccccc23)OC[C@@H](Cc2ccccc2)NC(=O)CN(CCC2CCCCC2)C(=O)[C@@H]1CC1CC1` [Example 341, (3S,7S,13R)-N-(2-(benzo[d][1,3]dioxol-5-yl)ethyl)-13-benzyl-9-(2-cyclohexylethyl)-7-(cyclopropylmethyl)-6-methyl-1,5,8,11-tetraoxo-1,2,3,4,5,6,7,8,9,10,11,12,13,14-tetradecahydronaphtho[1,2-p][1]oxa[4,7,10,14]tetraazacycloheptadecine-3-carboxamide] showed an EC50 [1] of 144 nM and an Emax [2] of 237%.

In the case of `CC(C)C[C@H]1C(=O)N2CCCC[C@@H]2C(=O)N[C@H](Cc2ccccc2)COc2ccc3ncc(F)cc3c2C(=O)N[C@H](C(=O)NCCc2cc(C3CC3)no2)CC(=O)N1C` [Example 655, (9S,13S,19aR,22R)-22-benzyl-N-(2-(3-cyclopropylisoxazol-5-yl)ethyl)-5-fluoro-13-isobutyl-12-methyl-7,11,14,20-tetraoxo-7,8,9,10,11,12,13,14,17,18,19,19a,20,21,22,23-hexadecahydro-16H-pyrido[2′,1′:6,7][1]oxa[4,7,10,14]tetraazacycloheptadecino[16,17-f]quinoline-9-carboxamide], the EC50 [3] is reported as 150 nM and the Emax [4] is reported as 318%.

`CC(C)C[C@H]1C(=O)N2CCCC[C@@H]2C(=O)N[C@H](Cc2ccccc2)COc2cnc3ccccc3c2C(=O)N[C@H](C(=O)NCCc2cc(C(C)(C)C)on2)CC(=O)N1C` [Example 90, (9S,13S,19aS,22R)-22-benzyl-N-(2-(5-(tert-butyl)isoxazol-3-yl)ethyl)-13-isobutyl-12-methyl-7,11,14,20-tetraoxo-7,8,9,10,11,12,13,14,17,18,19,19a,20,21,22,23-hexadecahydro-16H-pyrido[2′,1′:6,7][1]oxa[4,7,10,14]tetraazacycloheptadecino[17,16-c]quinoline-9-carboxamide] was tested, and the EC50 [1] was 364 nM and the Emax (in relation to the Emax of the corrector lumacaftor (=100%), U2OS cell line, 16h compound incubation, arithmetic mean values) was 129%.

For `COc1cccc(CCNC(=O)[C@@H]2CC(=O)N(C)[C@@H](CC(C)C)C(=O)N3CCN(c4ccccc4)C[C@@H]3C(=O)N[C@H](Cc3ccccc3)COc3ccnc(OC)c3C(=O)N2)c1` [Example 538, (7S,11S,20R,22aR)-20-benzyl-7-isobutyl-14-methoxy-N-(3-methoxyphenethyl)-8-methyl-6,9,13,22-tetraoxo-2-phenyl-1,3,4,6,7,8,9,10,11,12,13,19,20,21,22,22a-hexadecahydro-2H-pyrazino[2,1-f]pyrido[3,4-p][1]oxa[4,7,10,14]tetraazacycloheptadecine-11-carboxamide], the EC50 [3] was 80 nM and the Emax [4] was 340%.

In the case of `CC(C)C[C@H]1C(=O)N(C)[C@H](Cc2nc(C(F)(F)F)no2)C(=O)N[C@H](Cc2ccccc2)COc2ccc3ncc(F)cc3c2C(=O)N[C@H](C(=O)NCCc2nc(C3CC3)no2)CC(=O)N1C` [Example 964, (3S,7S,10R,13R)-13-benzyl-N-(2-(3-cyclopropyl-1,2,4-oxadiazol-5-yl)ethyl)-20-fluoro-7-isobutyl-6,9-dimethyl-1,5,8,11-tetraoxo-10-((3-(trifluoromethyl)-1,2,4-oxadiazol-5-yl)methyl)-1,2,3,4,5,6,7,8,9,10,11,12,13,14-tetradecahydro-[1]oxa[4,7,10,14]tetraazacycloheptadecino[16,17-f]quinoline-3-carboxamide], the EC50 [5] is reported as 21 nM and the Emax [6] is reported as 418%.

`COc1nccc2c1C(=O)N[C@H](C(=O)NCCc1noc(C3CC3)n1)CC(=O)N(C)[C@@H](CC(C)C)C(=O)N(C)[C@H](CCc1nc(C3CC3)no1)C(=O)N[C@H](Cc1ccccc1)CO2` [Example 864, (3R,6R,9S,13S)-3-benzyl-N-(2-(5-cyclopropyl-1,2,4-oxadiazol-3-yl)ethyl)-6-(2-(3-cyclopropyl-1,2,4-oxadiazol-5-yl)ethyl)-9-isobutyl-16-methoxy-7,10-dimethyl-5,8,11,15-tetraoxo-2,3,4,5,6,7,8,9,10,11,12,13,14,15-tetradecahydropyrido[3,4-p][1]oxa[4,7,10,14]tetraazacycloheptadecine-13-carboxamide] gave an EC50 [5] of 617 nM and an Emax [6] of 385%.

Work on `CC(C)C[C@H]1C(=O)N(C)C2(CCC2)C(=O)N[C@H](Cc2ccccc2)COc2cnc3ccc(F)cc3c2C(=O)N[C@H](C(=O)NCCc2nc(C3CC3)no2)CC(=O)N1C` [Example 692, (3′S,7′S,13′R)-13′-benzyl-N-(2-(3-cyclopropyl-1,2,4-oxadiazol-5-yl)ethyl)-20′-fluoro-7′-isobutyl-6′,9′-dimethyl-1′,5′,8′,11′-tetraoxo-2′,3′,4′,5′,6′,7′,8′,9′,11′,12′,13′,14′-dodecahydro-1′H-spiro[cyclobutane-1,10′-[1]oxa[4,7,10,14]tetraazacycloheptadecino[17,16-c]quinoline]-3′-carboxamide] yielded an EC50 [3] of 104 nM and an Emax [4] of 301%.

`CN1C(=O)C[C@@H](C(=O)NCCc2ccc3c(c2)OCO3)NC(=O)c2c(ccc3ccccc23)OC[C@@H](Cc2ccccc2)NC(=O)CN(CCC2CCCCC2)C(=O)[C@@H]1CC1CCC1` (mixture of isomers) [Example 292, (3RS,7S,13R)-N-(2-(benzo[d][1,3]dioxol-5-yl)ethyl)-13-benzyl-7-(cyclobutylmethyl)-9-(2-cyclohexylethyl)-6-methyl-1,5,8,11-tetraoxo-1,2,3,4,5,6,7,8,9,10,11,12,13,14-tetradecahydronaphtho[1,2-p][1]oxa[4,7,10,14]tetraazacycloheptadecine-3-carboxamide] gave an EC50 [1] of 114 nM.

Work on `[2H]C([2H])([2H])Oc1cccc(CCNC(=O)[C@@H]2CC(=O)N(C)[C@@H](CC(C)C)C(=O)N(CCC3CCCCC3)CC(=O)N[C@H](Cc3ccccc3)COc3cccc(OC([2H])([2H])[2H])c3C(=O)N2)c1` [Example 244, (3R,9S,13S)-3-benzyl-7-(2-cyclohexylethyl)-9-isobutyl-16-(methoxy-d3)-N-(3-(methoxy-d3)phenethyl)-10-methyl-5,8,11,15-tetraoxo-2,3,4,5,6,7,8,9,10,11,12,13,14,15-tetradecahydrobenzo[p][1]oxa[4,7,10,14]tetraazacycloheptadecine-13-carboxamide] yielded an EC50 [1] of 177 nM and an Emax [2] of 239%.

`CC[C@@H]1C(=O)N[C@H](Cc2ccccc2)COc2ccc3ncc(F)cc3c2C(=O)N[C@H](C(=O)NCCc2noc(C3CC3)n2)CC(=O)N(C)[C@@H](CC(C)C)C(=O)N1C` [Example 803, (3S,7S,10R,13R)-13-benzyl-N-(2-(5-cyclopropyl-1,2,4-oxadiazol-3-yl)ethyl)-10-ethyl-20-fluoro-7-isobutyl-6,9-dimethyl-1,5,8,11-tetraoxo-1,2,3,4,5,6,7,8,9,10,11,12,13,14-tetradecahydro-[1]oxa[4,7,10,14]tetraazacycloheptadecino[16,17-f]quinoline-3-carboxamide] was tested, and the EC50 [5] was 248 nM and the Emax [6] was 355%.
